Where two headings read alike, the source gives them in different places.
Test system: iCell cardiomyocytes (human iPSC-derived cardiomyocytes)
Test: Intracellular Ca2+ flux / beating parameters in iCell cardiomyocytes (FLIPR tetra), 90 min or 24 h
Format: cell-based
Settings: Homo sapiens, Cardiomyocyte, 0.00 µM = 100.00; for activity at 0.1 µM: 0.10 µM
Summary of the method: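 PODs were defined as the concentration crossing one SD of the vehicle-control means (0.5% DMSO) on four-parameter logistic fits of Ca2+ trace metrics (peak height, frequency, peak-spacing CV, decay/rise ratio). Traces came from 100 s, 8 Hz FLIPR reads at 37 °C on calcium-dye-loaded iCell cardiomyocytes. Before reading, cells were treated for 90 min or 24 h from 5× chemical plates spanning 0.05–500 µM, in triplicate.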

[1] = 1.5 h, 90min, read-out: cm.amp.avg.90min
[2] = 1.5 h, 90min, read-out: cm.amp.cv.90min
[3] = 1.5 h, 90min, read-out: cm.bpm.90min
[4] = 1.5 h, 90min, read-out: cm.decay.rise.90min
[5] = 1.5 h, 90min, read-out: cm.spacing.cv.90min
[6] = 24 h, 24hrs, read-out: cm.amp.avg.24hrs
[7] = 24 h, 24hrs, read-out: cm.amp.cv.24hrs
[8] = 24 h, 24hrs, read-out: cm.bpm.24hrs
[9] = 24 h, 24hrs, read-out: cm.decay.rise.24hrs
[10] = 24 h, 24hrs, read-out: cm.spacing.cv.24hrs

## Clc1ccc(Cl)c(-c2cc(Cl)ccc2Cl)c1 [PCB52]
[1]
  activity at 0.01 µM: 97.9%
  activity at 0.1 µM: 101%
  activity at 1 µM: 105%
  activity at 10 µM: 96.6%
  activity at 100 µM: 44.4%
[2]
  activity at 0.01 µM: 90.9%
  activity at 0.1 µM: 102%
  activity at 1 µM: 111%
  activity at 10 µM: 99.4%
  activity at 100 µM: 73%
[3]
  activity at 0.01 µM: 102%
  activity at 0.1 µM: 99.1%
  activity at 1 µM: 97.8%
  activity at 10 µM: 99.1%
  activity at 100 µM: 0%
[4]
  activity at 0.01 µM: 101%
  activity at 0.1 µM: 101%
  activity at 1 µM: 102%
  activity at 10 µM: 111%
  activity at 100 µM: 42.8%
[5]
  activity at 0.01 µM: 93.9%
  activity at 0.1 µM: 98.6%
  activity at 1 µM: 91%
  activity at 10 µM: 102%
  activity at 100 µM: 71.6%
[6]
  activity at 0.01 µM: 86.6%
  activity at 0.1 µM: 84.6%
  activity at 1 µM: 51.8%
  activity at 10 µM: 86.5%
  activity at 100 µM: 0%
[7]
  activity at 0.01 µM: 98.1%
  activity at 0.1 µM: 95.6%
  activity at 1 µM: 42.2%
  activity at 10 µM: 119%
  activity at 100 µM: 0%
[8]
  activity at 0.01 µM: 96.4%
  activity at 0.1 µM: 90.7%
  activity at 1 µM: 46.8%
  activity at 10 µM: 93.6%
  activity at 100 µM: 0%
[9]
  activity at 0.01 µM: 111%
  activity at 0.1 µM: 108%
  activity at 1 µM: 55.5%
  activity at 10 µM: 127%
  activity at 100 µM: 0%
[10]
  activity at 0.01 µM: 109%
  activity at 0.1 µM: 89.3%
  activity at 1 µM: 44.5%
  activity at 10 µM: 98.5%
  activity at 100 µM: 0%

Source: article PMC7377239, “Cardiovascular Effects of Polychlorinated Biphenyls and Their Major Metabolites” (Environmental Health Perspectives, 2020)
